The results in this text go back to US8461328B2, “Tricyclic heterocyclic compounds, compositions and methods of use thereof” (Genentech, Inc., priority 2010, dated 2013).

What all share (type): biochemical
One experiment concerns the target T1, JAK1 (Homo sapiens, UniProt P23458).
T1 construct: made in house; host or cells: SF9 insect cells (baculovirus)
Briefly: JAK1 inhibition (Table 4). To be noted: read-out: JAK1 Ki.

A further experiment concerns the target T2, JAK2 (Homo sapiens, UniProt O60674).
T2 construct: made in house; host or cells: SF9 insect cells (baculovirus)
Briefly: JAK2 inhibition (Table 4). The following applies: read-out: JAK2 Ki.

In another experiment the target is T3, JAK3 (Homo sapiens, UniProt P52333).
T3 construct: made in house; host or cells: SF9 insect cells (baculovirus)
T3 sequence (P52333 783-1124): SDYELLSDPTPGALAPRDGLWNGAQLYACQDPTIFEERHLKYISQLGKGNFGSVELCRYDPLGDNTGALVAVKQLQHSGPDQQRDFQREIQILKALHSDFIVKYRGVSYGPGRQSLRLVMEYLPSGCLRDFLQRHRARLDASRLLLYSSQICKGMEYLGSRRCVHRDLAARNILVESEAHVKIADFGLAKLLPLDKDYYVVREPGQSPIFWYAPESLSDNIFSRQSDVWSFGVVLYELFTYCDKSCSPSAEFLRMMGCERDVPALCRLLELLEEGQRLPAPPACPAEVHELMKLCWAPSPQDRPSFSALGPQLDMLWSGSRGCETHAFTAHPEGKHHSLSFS
Briefly: JAK3 inhibition (Table 4). The following applies: read-out: JAK3 Ki.

A further experiment has as its target T4, TYK2 (Homo sapiens, UniProt P29597).
T4 construct: made in house; host or cells: SF9 insect cells (baculovirus)
T4 sequence (P29597 873-1187): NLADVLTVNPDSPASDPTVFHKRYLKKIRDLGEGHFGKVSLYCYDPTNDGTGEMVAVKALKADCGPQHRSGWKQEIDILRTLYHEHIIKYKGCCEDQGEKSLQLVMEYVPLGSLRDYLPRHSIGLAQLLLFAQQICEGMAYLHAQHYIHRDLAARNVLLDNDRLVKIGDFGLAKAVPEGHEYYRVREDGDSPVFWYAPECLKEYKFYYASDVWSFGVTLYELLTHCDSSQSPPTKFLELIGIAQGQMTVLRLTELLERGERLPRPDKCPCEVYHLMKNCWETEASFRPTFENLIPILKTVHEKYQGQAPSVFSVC
The experiment in a line: TYK2 inhibition (Table 4).

T2 sequence (O60674 812-1132): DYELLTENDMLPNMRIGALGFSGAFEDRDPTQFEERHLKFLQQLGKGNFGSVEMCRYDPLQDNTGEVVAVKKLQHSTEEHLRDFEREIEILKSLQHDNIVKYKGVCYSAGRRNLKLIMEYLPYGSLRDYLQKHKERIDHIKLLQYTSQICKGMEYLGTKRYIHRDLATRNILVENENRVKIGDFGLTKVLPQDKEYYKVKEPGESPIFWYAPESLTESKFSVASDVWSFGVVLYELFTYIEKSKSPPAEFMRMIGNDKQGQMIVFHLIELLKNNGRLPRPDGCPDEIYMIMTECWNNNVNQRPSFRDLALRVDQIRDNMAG
T1 sequence (P23458 852-1154): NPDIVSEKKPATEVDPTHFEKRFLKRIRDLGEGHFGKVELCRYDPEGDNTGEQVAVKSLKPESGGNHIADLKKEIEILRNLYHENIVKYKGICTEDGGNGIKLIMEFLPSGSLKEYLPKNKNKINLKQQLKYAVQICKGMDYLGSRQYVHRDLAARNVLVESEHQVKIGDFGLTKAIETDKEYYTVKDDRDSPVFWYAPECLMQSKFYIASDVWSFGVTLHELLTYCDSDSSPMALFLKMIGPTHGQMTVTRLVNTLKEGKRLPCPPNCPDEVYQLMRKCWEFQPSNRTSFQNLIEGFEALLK

On to `CC(O)c1nc2cnc3[nH]ccc3c2n1C1CCN(Cc2ccccc2)CC1` (racemic) [Example 157, Racemic 1-[1-(1-Benzyl-piperidin-4-yl)-1,6-dihydro-1,2,3,5,6-tetraaza-as-indacen-2-yl]-ethanol], for which the Ki (usually the dissociation constant of the complex between target and ligand, obtained from inhibition or displacement) amounted to 0.00359 µM on JAK1, 0.0251 µM at JAK2, 0.034 µM on JAK3 and 0.207 µM at TYK2.
In the same order, the values of `CC(O)c1nc2cnc3[nH]ccc3c2n1C1CCN(CCC#N)CC1` (racemic) [Example 158, Racemic 3-{4-[2-(1-Hydroxy-ethyl)-6H-1,2,3,5,6-tetraaza-as-indacen-1-yl]-piperidin-1-yl}-propionitrile] are 0.00376 µM, 0.0282 µM, 0.0182 µM and 0.0329 µM.
In the same order, the values of `CC(C)NC(=O)C(C)c1nc2cnc3[nH]ccc3c2n1C1CCN(CCC#N)CC1` (racemic) [Example 172, Racemic 2-{1-[1-(2-Cyano-ethyl)-piperidin-4-yl]-1,6-dihydro-1,2,3,5,6-tetraaza-as-indacene-2-yl}-N-isopropyl-propionamide] are 0.141 µM, 0.251 µM, 0.0226 µM and 2.77 µM.
In the same order, the values of `CC1CC(n2cnc3cnc4[nH]ccc4c32)CCN1` (racemic) [Example 229, 1-(2-Methyl-piperidin-4-yl)-1,6-dihydro-1,3,5,6-tetraaza-as-indacene] are 0.0487 µM, 0.142 µM, 0.417 µM and 0.33 µM.
On to `CC1CC(n2cnc3cnc4[nH]ccc4c32)CCN1` (racemic) [Example 230, 1-(2-Methyl-piperidin-4-yl)-1,6-dihydro-1,3,5,6-tetraaza-as-indacene], for which the inhibitory constant (Ki) on JAK1 amounted to 0.0478 µM; on JAK2, 0.123 µM; at JAK3 it was 0.424 µM; at TYK2 it was 0.435 µM.
The matching figures for `O=C(C1CC1F)N1CCC[C@@H](n2cnc3cnc4[nH]ccc4c32)C1` (mixture of isomers) [Example 235, (2-Fluoro-cyclopropyl)-[(R)-3-(6H-1,3,5,6-tetraaza-as-indacen-1-yl)-piperidin-1-yl]-methanone]: 0.00437 µM, 0.00656 µM, 0.0426 µM and 0.0179 µM.
In the same order, the values of `CC(C)(C)OC(=O)N1CCCC1(C)C(=O)N1CCC(n2cnc3cnc4[nH]ccc4c32)CC1` (racemic) [Example 244, 2-Methyl-2-[4-(6H-1,3,5,6-tetraaza-as-indacen-1-yl)-piperidine-1-carbonyl]-pyrrolidine-1 carboxylic acid tert-butyl ester] are 0.198 µM, 0.363 µM, 3.4 µM and 1.82 µM.
In the same order, the values of `CC1(C(=O)N2CCC(n3cnc4cnc5[nH]ccc5c43)CC2)CCCN1` (racemic) [Example 251] are 0.216 µM, 0.269 µM, 2.04 µM and 3.45 µM.
As to `CC(O)c1nc2cnc3[nH]ccc3c2n1C1CCNCC1` (racemic) [Example 291], the Ki on JAK1 stood at 0.0102 µM; at JAK2, 0.854 µM; on JAK3, 0.731 µM; at TYK2, 0.339 µM.
The matching figures for `CC(O)c1nc2cnc3[nH]ccc3c2n1C1CCN(Cc2cccnc2)CC1` (racemic) [Example 292, 1-[1-(1-Pyridin-3-ylmethyl-piperidin-4-yl)-1,6-dihydro-1,3,5,6-tetraaza-as-indacen-2-yl]-ethanol]: 0.00292 µM, 0.0265 µM, 0.0079 µM and 0.218 µM.
Consider `NC1CCC(n2cnc3cnc4[nH]ccc4c32)C1` (racemic) [Example 294, 3-(6H-1,3,5,6-Tetraaza-as-indacen-1-yl)-cyclopentylamine], for which the inhibition constant (Ki) at JAK1 was determined as 0.0376 µM; at JAK2, 0.176 µM; on JAK3, 0.151 µM; at TYK2, 0.38 µM.
In the same order, the values of `N#CCCNC1CCC(n2cnc3cnc4[nH]ccc4c32)C1` (racemic) [Example 300, 3-[3-(6H-1,3,5,6-Tetraaza-as-indacen-1-yl)-cyclopentylamino]-propionitrile] are 0.00781 µM, 0.0183 µM, 0.0288 µM and 0.0659 µM.
The matching figures for `CC(CC#N)N1CCC(n2cnc3cnc4[nH]ccc4c32)CC1` (racemic) [Example 305, 3-[4-(6H-1,3,5,6-Tetraaza-as-indacen-1-yl)-piperidin-1-yl]-butyronitrile]: 0.00078 µM, 0.00093 µM, 0.017 µM and 0.0037 µM.
In the same order, the values of `CC1CNCCC1n1cnc2cnc3[nH]ccc3c21` (racemic) [Example 306, 1-(3-Methyl-piperidin-4-yl)-1,6-dihydro-1,3,5,6-tetraaza-as-indacene] are 0.0349 µM, 0.156 µM, 0.468 µM and 0.449 µM.
`CC1CNCCC1n1cnc2cnc3[nH]ccc3c21` (racemic) [Example 312, 1-(3-Methyl-piperidin-4-yl)-1,6-dihydro-1,3,5,6-tetraaza-as-indacene]: the inhibition constant (Ki) was 0.0476 µM on JAK1, 0.415 µM at JAK2, 0.626 µM at JAK3 and 1.05 µM on TYK2.
The matching figures for `CC1CN(CCC#N)CCC1n1cnc2cnc3[nH]ccc3c21` (racemic) [Example 323, 3-[3-Methyl-4-(6H-1,3,5,6-tetraaza-as-indacen-1-yl)-piperidin-1-yl]-propionitrile]: 0.00081 µM, 0.00177 µM, 0.00677 µM and 0.00781 µM.
Consider `CC1CN(CCC#N)CCC1n1cnc2cnc3[nH]ccc3c21` (racemic) [Example 324, 3-[3-Methyl-4-(6H-1,3,5,6-tetraaza-as-indacen-1-yl)-piperidin-1-yl]-propionitrile], for which the Ki at JAK1 was determined as 0.00063 µM; on JAK2 it was 0.0006 µM; at JAK3, 0.0052 µM; at TYK2, 0.00376 µM.
In the same order, the values of `CC1CN(Cc2cncnc2)CCC1n1cnc2cnc3[nH]ccc3c21` (racemic) [Example 342, 1-(3-Methyl-1-pyrimidin-5-ylmethyl-piperidin-4-yl)-1,6-dihydro-1,3,5,6-tetraaza-as-indacene] are 0.002 µM, 0.00236 µM, 0.0234 µM and 0.0249 µM.
Regarding `CC1CN(Cc2cncnc2)CCC1n1cnc2cnc3[nH]ccc3c21` (racemic) [Example 343, 1-(3-Methyl-1-pyrimidin-5-ylmethyl-piperidin-4-yl)-1,6-dihydro-1,3,5,6-tetraaza-as-indacene], the inhibitory constant (Ki) on JAK1 is 0.00571 µM; on JAK2, 0.014 µM; on JAK3 it was 0.0032 µM; on TYK2 it was 0.346 µM.
As for `CC1CN(S(C)(=O)=O)CCC1n1cnc2cnc3[nH]ccc3c21` (racemic) [Example 344, 1-(1-Methanesulfonyl-3-methyl-piperidin-4-yl)-1,6-dihydro-1,3,5,6-tetraaza-as-indacene], the Ki on JAK1 worked out at 0.0157 µM; at JAK2, 0.0303 µM; on JAK3 it was 0.0804 µM; on TYK2 it was 0.329 µM.
The matching figures for `CC1CN(S(C)(=O)=O)CCC1n1cnc2cnc3[nH]ccc3c21` (racemic) [Example 345, 1-(1-Methanesulfonyl-3-methyl-piperidin-4-yl)-1,6-dihydro-1,3,5,6-tetraaza-as-indacene]: 0.00912 µM, 0.00967 µM, 0.354 µM and 0.0373 µM.
In the same order, the values of `CC(O)c1nc2cnc3[nH]ccc3c2n1C1CCN(Cc2ccnc(C#N)c2)CC1` (racemic) [Example 350, 4-{4-[2-(1-Hydroxy-ethyl)-6H-1,3,5,6-tetraaza-as-indacen-1-yl]-piperidin-1-ylmethyl}-pyridine-2-carbonitrile] are 0.00644 µM, 0.0504 µM, 0.178 µM and 0.269 µM.
In the same order, the values of `CC(O)c1nc2cnc3[nH]ccc3c2n1C1CCN(Cc2csc(C(F)(F)F)n2)CC1` (racemic) [Example 351, 1-{1-[1-(2-Trifluoromethyl-thiazol-4-ylmethyl)-piperidin-4-yl]-1,6-dihydro-1,3,5,6-tetraaza-as-indacen-2-yl}-ethanol] are 0.00494 µM, 0.0292 µM, 0.0314 µM and 0.284 µM.
As to `Cc1nc2cnc3[nH]ccc3c2n1C1CCC(NC(=O)OC(C)(C)C)C1` (racemic) [Example 352, [(1S,3S)-3-(2-Methyl-6H-1,3,5,6-tetraaza-as-indacen-1-yl]-cyclopentyl]-carbamic acid tert-butyl ester], the Ki was determined as 0.00103 µM on JAK1, 0.00562 µM on JAK2, 0.0237 µM on JAK3 and 0.0446 µM at TYK2.
In the same order, the values of `CC(O)c1nc2cnc3[nH]ccc3c2n1C1CCN(CC(F)(F)F)CC1` (racemic) [Example 355, 1-{1-[1-(2,2,2-Trifluoro-ethyl)-piperidin-4-yl]-1,6-dihydro-1,3,5,6-tetraaza-as-indacen-2-yl}-ethanol] are 0.00379 µM, 0.0448 µM, 0.0412 µM and 0.0345 µM.
